# Data as given in paper PMC12030678, “Investigations of In Vitro Anti-Acetylcholinesterase, Anti-Diabetic, Anti-Inflammatory, and Anti-Cancer Efficacy of Garden Cress (Lepidium sativum Linn.) Seed Extracts, as Well as In Vivo Biochemical and Hematological Assays” (Pharmaceutics, 2025).
# Experiments:
# [1] = target: T1, 5-LOX enzyme (human recombinant) (Homo sapiens, UniProt P09917); assay: 5-Lipoxygenase inhibition assay; assay type: biochemical; conditions: inhibition at 100 µg/mL
# T1 construct: purchased Sigma-Aldrich 437996
# T1 sequence (P09917 1-674): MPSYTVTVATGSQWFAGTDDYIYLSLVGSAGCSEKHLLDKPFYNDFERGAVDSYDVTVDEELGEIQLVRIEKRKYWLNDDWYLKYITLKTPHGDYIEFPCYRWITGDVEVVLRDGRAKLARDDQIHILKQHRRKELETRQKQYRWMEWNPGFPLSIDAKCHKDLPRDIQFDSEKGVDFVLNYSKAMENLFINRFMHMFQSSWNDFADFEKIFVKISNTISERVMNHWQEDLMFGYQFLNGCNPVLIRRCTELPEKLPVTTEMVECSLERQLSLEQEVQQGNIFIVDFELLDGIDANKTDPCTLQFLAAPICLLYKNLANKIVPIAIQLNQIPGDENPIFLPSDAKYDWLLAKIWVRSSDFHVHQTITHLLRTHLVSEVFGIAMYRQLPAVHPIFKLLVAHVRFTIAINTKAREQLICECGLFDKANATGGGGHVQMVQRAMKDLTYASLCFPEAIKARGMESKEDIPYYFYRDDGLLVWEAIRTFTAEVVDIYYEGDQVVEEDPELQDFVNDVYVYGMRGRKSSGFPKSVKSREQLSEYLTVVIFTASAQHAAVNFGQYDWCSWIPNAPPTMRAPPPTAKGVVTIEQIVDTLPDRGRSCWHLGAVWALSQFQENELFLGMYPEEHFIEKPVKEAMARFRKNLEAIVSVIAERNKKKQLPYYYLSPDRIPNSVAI
# Protocol: different concentrations of 10 μL of each compound or doxorubicin (positive control, in DMSO) for 48 h in a serum free medium prior to the MTT assay. Subsequently, the media were carefully removed, and 40 μL of MTT (2.5 mg/mL) was added to each well and then incubated for an additional 4 h. […] The absorbance was measured at 570 nm using a SpectraMax Paradigm Multi-Mode microplate reader. The relative cell viability was expressed as the mean percentage of viable cells relative to the untreated control cells. […] Percent of the cell-growth inhibition (%) and the IC50 was calculated using IC50 calculation software.
# Activities of caspase-3 were measured by enzyme-linked immunosorbent assay (ELISA) using the Invitrogen caspase-3 (Active) (human) ELISA kit (96 tests) from Invitrogen Corporation, following the manufacturer's instructions. Activities of Bcl-2 were measured using the Invitrogen Zymed Bcl-2 ELISA Kit (96 tests) from Invitrogen Corporation, following the manufacturer's instructions [52-54].
# [2] = DPPH radical scavenging activity
# Protocol: (§1) Antioxidant, scavenging, anti-Alzheimer, anti-diabetic, anti-arthritic, anti-inflammatory, cytotoxic, and enzymatic activities were assessed according to the proposed methods detailed in the Supplementary File. All biological activities were assessed in triplicate for all studied extracts. […]
# The 1,1-Diphenyl-2-picryl-hydrazyl (DPPH) radical scavenging activities were evaluated using the method described by Rahman et al.. An antioxidant substance capable of donating a hydrogen atom to a solution containing DPPH- can reduce the stable free radical, causing the solution to change color from violet to pale yellow. The remaining DPPH- radical was quantified by measuring the intensity of a light-purple colored DPPH methanol solution in the visible range at 518 nm using a spectroscopic method. Two milliliters of a DPPH solution (100 µM) in ethanol were mixed with 2 mL of the sample (at each concentration).
# The reaction mixture for each concentration was thoroughly vortexed and then incubated in the dark at room temperature for 30 minutes. The absorbance was then measured spectrophotometrically at 518 nm against a blank (ethanol). For the control, 2 mL of ethanol was added instead of the sample and run simultaneously with the test. Ascorbic acid was used at the same concentrations as a positive control. Percent inhibition of the DPPH free radical was calculated. […]
# [3] = Nitric oxide (NO) radical scavenging activity
# Protocol: Antioxidant, scavenging, anti-Alzheimer, anti-diabetic, anti-arthritic, anti-inflammatory, cytotoxic, and enzymatic activities were assessed according to the proposed methods detailed in the Supplementary File. All biological activities were assessed in triplicate for all studied extracts.
# [4] = Total antioxidant capacity (TAC), phosphomolybdenum method; conditions: in vitro total antioxidant capacity
# Protocol: The total antioxidant capacity (TAC) was determined by analyzing the green phosphate/Mo5+
# [38]. Samples (at each concentration) were mixed with a reagent solution containing 0.3 N
# sulfuric acid, 28 mM sodium phosphate, and 4 mM ammonium molybdate. Methanol (80%)
# was used in place of the sample for the blank. The tubes were sealed and incubated in a
# boiling water bath for 90 minutes. After cooling to room temperature, the absorbance was
# standard. The antioxidant capacity was expressed as mg gallic acid equivalent per gram
# [5] = Iron reducing power (IRP); conditions: in vitro iron reducing power
# Protocol: The iron reducing power was determined as µg/mL using the method proposed by Oyaizu
# In brief, 1ml of the tested sample (at each concentration) was combined with
# 1mL of 200mM sodium phosphate buffer (pH 6.6) and 1mL of 1% potassium ferricyanide.
# The mixture was then incubated at 50°C for 20 minutes, followed by the addition of 1mL of trichloroacetic acid (10%). After centrifugation at 2000rpm for 10 minutes, the upper layer solution (2.5 mL) was mixed with 2.5 mL of double deionized water and 1mL of fresh ferric chloride (0.1%). The absorbance was measured at 700nm against a blank prepared without the sample. Ascorbic acid was used at the same concentrations as a standard. A high absorbance at 700nm indicates a higher reducing power in the reaction mixture.
# [6] = ABTS radical scavenging activity
# Protocol: as §1
# An antioxidant substance capable of donating a hydrogen atom to a solution containing DPPH- can reduce the stable free radical, causing the solution to change color from violet to pale yellow. […]
# Two milliliters of a DPPH […]
# solution (100 µM) in ethanol were mixed with 2 mL of the sample (at each concentration). […]
# For the control, 2 mL of ethanol was added instead of the sample and run simultaneously with the test. Ascorbic acid was used at the same concentrations as a positive control. […]
# (7 mM) and potassium persulfate solution (2.4 mM). The working solution was prepared by mixing the two stock solutions in equal quantities and allowing them to react at room temperature in a dark place for 14 hours. The solution was then diluted by mixing 1 mL of ABTS solution with 60 mL of methanol to obtain an absorbance of 0.706 ± 0.01 units at 734 nm using a spectrophotometer. […] The tested samples (at each concentration) were allowed to react with 1 mL of the ABTS solution, and the absorbance was taken at 734 nm after 7 minutes using a spectrophotometer. […]
# Caco-2 cells = assay: Cytotoxic activity, MTT assay, Caco-2; assay type: cell-based; conditions: Homo sapiens, 48 h, read-out: IC50 (μg/mL) Caco-2
# Protocol: as §1
# Cytotoxic activity and Enzymatic Assay
# It will be assayed against human hepatocellular carcinoma (HepG-2), colon cancer (Caco-2), and lung cancer (A549) cells using 3-(4,5-dimethythiazol-2-yl)-2,5-diphenyl tetrazolium bromide (MTT) assay by determining the optical density (OD) at 570 nm according to the […]
# (§2) The cells were dispensed in a 96-well sterile […]
# different concentrations of 10 μL of each compound or doxorubicin (positive control, in DMSO) for 48 h in a serum free medium prior to the MTT assay. Subsequently, the media were carefully removed, and 40 μL of MTT (2.5 mg/mL) was added to each well and then incubated for an additional 4 h. Purple formazan dye crystals were solubilized by the addition of 200 μL of DMSO. The absorbance was measured at 570 nm using a SpectraMax Paradigm Multi-Mode microplate reader. The relative cell viability was expressed as the mean percentage of viable cells relative to the untreated control cells. All experiments were conducted in triplicate. Percent of the cell-growth inhibition (%) and the IC50 was calculated using IC50 calculation software. […]
# Bcl-2 = assay type: cell-based, human
# Protocol: as §1
# (§3) Cytotoxic activity and Enzymatic Assay […]
# as §2
# (§4) different concentrations of 10 μL of each compound or doxorubicin (positive control, in DMSO) for 48 h in a serum free medium prior to the MTT assay. […]
# Corporation, following the manufacturer's instructions. Activities of Bcl-2 were measured using the Invitrogen Zymed Bcl-2 ELISA Kit (96 tests) from Invitrogen Corporation, following the manufacturer's instructions.
# caspase-3 = assay type: cell-based, human
# Protocol: as §1, §3, §2, §4
# Activities of caspase-3 were measured by enzyme-linked immunosorbent assay (ELISA) using the Invitrogen caspase-3 (Active) (human) ELISA kit (96 tests) from Invitrogen Corporation, following the manufacturer's instructions. […]
# α-amylase enzyme = target: T2, α-amylase enzyme (Sus scrofa, UniProt P00690); assay: α-Amylase inhibition (DNSA method); assay type: biochemical; conditions: at 100 µg/mL
# T2 sequence (P00690 16-511): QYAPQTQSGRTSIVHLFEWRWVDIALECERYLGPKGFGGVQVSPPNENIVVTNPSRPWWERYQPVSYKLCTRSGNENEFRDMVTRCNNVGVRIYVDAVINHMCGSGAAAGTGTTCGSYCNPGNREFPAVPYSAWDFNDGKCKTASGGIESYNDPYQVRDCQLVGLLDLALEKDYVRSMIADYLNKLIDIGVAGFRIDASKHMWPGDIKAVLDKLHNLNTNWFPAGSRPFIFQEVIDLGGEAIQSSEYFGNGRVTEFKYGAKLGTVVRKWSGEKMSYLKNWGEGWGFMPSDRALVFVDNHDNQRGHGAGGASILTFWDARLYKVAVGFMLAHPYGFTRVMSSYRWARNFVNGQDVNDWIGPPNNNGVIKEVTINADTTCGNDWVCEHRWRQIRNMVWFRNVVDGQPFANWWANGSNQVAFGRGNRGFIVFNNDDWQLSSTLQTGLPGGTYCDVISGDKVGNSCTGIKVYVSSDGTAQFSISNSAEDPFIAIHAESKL
# Protocol: Anti-Alzheimer's activity
# In this study, we assessed the inhibition percentage of the acetylcholinesterase (AChE)
# This assay involved calculating the inhibition percentage (%) of α-amylase enzyme using
# The mixture was then left at
# temperature and diluted with 5 mL of distilled water.
# α-glucosidase enzyme = α-glucosidase enzyme (Saccharomyces cerevisiae, UniProt P53341); assay: α-Glucosidase inhibition (pNPG); assay type: biochemical; conditions: at 100 µg/mL
# Sequence of α-glucosidase enzyme (P53341 whole entry): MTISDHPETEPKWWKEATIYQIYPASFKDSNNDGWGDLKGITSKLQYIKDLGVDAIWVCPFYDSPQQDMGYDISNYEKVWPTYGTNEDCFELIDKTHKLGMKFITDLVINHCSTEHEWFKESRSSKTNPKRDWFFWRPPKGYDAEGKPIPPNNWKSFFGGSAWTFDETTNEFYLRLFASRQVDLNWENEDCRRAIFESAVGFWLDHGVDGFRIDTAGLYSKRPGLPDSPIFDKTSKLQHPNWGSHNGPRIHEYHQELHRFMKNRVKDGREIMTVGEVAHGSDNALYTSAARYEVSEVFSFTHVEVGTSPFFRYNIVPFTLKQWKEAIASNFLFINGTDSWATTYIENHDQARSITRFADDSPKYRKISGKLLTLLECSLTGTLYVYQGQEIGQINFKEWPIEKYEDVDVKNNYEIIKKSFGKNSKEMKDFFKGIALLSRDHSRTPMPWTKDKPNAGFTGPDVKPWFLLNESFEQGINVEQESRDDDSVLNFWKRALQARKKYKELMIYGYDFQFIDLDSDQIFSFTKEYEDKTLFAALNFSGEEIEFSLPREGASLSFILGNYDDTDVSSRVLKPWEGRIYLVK
smiles,measurement,setting,value
CC(c1cc2ccccc2s1)N(O)C(N)=O (stereo not drawn) [Zileuton],5-LOX (%),[1],55.71 ± 0.11 (Zileuton) %
O=C1O[C@H]([C@@H](O)CO)C(O)=C1O [Ascorbic Acid],IC50 (µg/mL) DPPH,[2],4.29 ± 0.03 µg/mL
same,Inhibition (%) DPPH,[2]; at 100 µg/mL,66.50 ± 0.11%
same,IC50 (µg/mL) NO,[3],5.51 ± 0.02 µg/mL
same,Inhibition (%) NO,[3]; at 100 µg/mL,60.75 ± 0.11%
same,TAC (mg Gallic Acid/g),[4],84.50 ± 0.13 mg Gallic Acid/g
same,IRP,[5],76.75 ± 0.13 µg/mL
same,IC50 (µg/mL) ABTS,[6],3.80 ± 0.04 µg/mL
same,Inhibition (%) ABTS,[6]; at 100 µg/mL,70.25 ± 0.11%
COc1cccc2c1C(=O)c1c(O)c3c(c(O)c1C2=O)C[C@@](O)(C(=O)CO)C[C@@H]3O[C@H]1C[C@H](N)[C@H](O)[C@H](C)O1 [Doxorubicin],IC50,Caco-2 cells,33.3 µg/mL
same,Bcl-2 (ng/mL) A549,"Bcl-2; treated A549 cells, DMSO control 12.58 ± 0.05",3.27 ± 0.01 ng/mL
same,Bcl-2 (ng/mL) Caco-2,"Bcl-2; treated Caco-2 cells, DMSO control 5.74 ± 0.08",1.49 ± 0.02 ng/mL
same,Bcl-2 (ng/mL) HepG-2,"Bcl-2; treated HepG-2 cells, DMSO control 11.15 ± 0.15",2.90 ± 0.04 ng/mL
same,Caspase-3 (pg/mL) A549,"caspase-3; treated A549 cells, DMSO control 88.67 ± 0.12",341.39 ± 0.46 pg/mL
same,Caspase-3 (pg/mL) Caco-2,"caspase-3; treated Caco-2 cells, DMSO control 94.81 ± 0.14",365.02 ± 0.55 pg/mL
same,Caspase-3 (pg/mL) HepG-2,"caspase-3; treated HepG-2 cells, DMSO control 108.79 ± 0.85",418.84 ± 3.27 pg/mL
C[C@H]1O[C@H](O[C@H]2[C@H](O)[C@@H](O)[C@@H](O[C@H]3[C@H](O)[C@@H](O)C(O)O[C@@H]3CO)O[C@@H]2CO)[C@H](O)[C@@H](O)[C@@H]1N[C@H]1C=C(CO)[C@@H](O)[C@H](O)[C@H]1O (stereo partly drawn) [Acarbose],α-Amylase Inhibition (%),α-amylase enzyme,66.90 ± 0.10%
same,α-Glucosidase Inhibition (%),α-glucosidase enzyme,56.65 ± 0.10%
